Laboratory results: article PMC9823088, “The oral selective estrogen receptor degrader GDC-0810 (ARN-810) in postmenopausal women with hormone receptor-positive HER2-negative (HR + /HER2 −) advanced/metastatic breast cancer” (Breast Cancer Research and Treatment, 2022)

Legend:
[1] = tested on: tamoxifen-sensitive ER + breast cancer xenograft; conditions: tamoxifen-sensitive ER + breast cancer xenograft models; cited from earlier work
[2] = tested on: CYP2C enzymes; set-up: method as in printed; conditions: stated as reason for dose adjustments; ref not given; cited from earlier work
[3] = tested on: ER + (HER2 −) locally advanced or metastatic breast cancer; assay: Anti-tumor activity per RECIST v1.1 (best confirmed overall outcome, clinical benefit rate, progression-free survival), phase Ia/Ib/IIa study; format: in vivo, human
Description: This was a multi-institutional phase Ia/Ib/IIa, open-label, dose finding, safety, pharmacokinetics, and proof-of-concept study of GDC-0810 in women with ER + metastatic breast cancer. Phase Ia employed a standard 3 + 3 dose-escalation scheme. Phase Ib was dose escalation as part of combination treatment. Phase IIa explored the recommended phase 2 dose (RP2D) from phase Ia. The protocol was approved by institutional review boards (IRBs) at participating institutions. Written informed consent was obtained from patients prior to performing any procedures; the study was conducted in accordance with the principles of the Declaration of Helsinki and Good Clinical Practice.
Blood samples were collected for pharmacokinetic assessments. Tumor assessments were performed at screening and every 8 weeks from cycle 1, day 1 (C1D1). Radiographic assessment of objective tumor response or disease progression was based on Response Evaluation Criteria in Solid Tumors (RECIST v1.1). Transvaginal ultrasound scans were performed to monitor endometrial thickness at screening, at every 6 months from C1D1, and at the end of treatment. Imaging with [^18F]-fluoroestradiol positron emission tomography (FES-PET) was performed to quantify ER expression in tumors and to assess for pharmacodynamic response. Further assessment details are provided in Supplementary Methods.
Analyses of safety, pharmacokinetics, anti-tumor activity, and data from the FES-PET imaging correlative studies were planned. Confirmatory inferential analyses and imputation for missing data were not planned due to the exploratory nature of this study. Descriptive statistics were used to summarize patient data. The number of patients to be enrolled was dependent upon the observed safety and pharmacokinetic profile during dose escalations. The safety- and efficacy-evaluable population included patients who received at least one dose of the study drug. Safety was assessed through summaries of DLTs, AEs, changes in select laboratory test results, vital signs, ECGs, and changes in endometrial thickness. Objective response (with confirmation) and clinical benefit rates (CBR) were derived per RECIST v1.1 and summarized by dose level and cohort.
CYP2B6 and CYP2C enzymes. No hormonal therapy, chemotherapy, immunotherapy, or experimental anti-cancer medications were permitted during the study. […]
Tumor assessments were performed at screening and every 8 weeks from cycle-1, day-1 (C1D1). Radiographic assessment of objective tumor response or disease progression was based on Response Evaluation Criteria in Solid Tumors (RECIST v1.1). Transvaginal ultrasound scans were performed to monitor endometrial thickness at screening, at every 6 months from C1D1, and at the end of treatment. […]

[4] = tested on: ERα; set-up: method as in PMID 27410477; conditions: MCF-7 breast cancer cell; cited from earlier work
[5] = tested on: tamoxifen-resistant ER + breast cancer xenograft; conditions: tamoxifen-resistant ER + breast cancer xenograft models; cited from earlier work
[6] = all patients, phase IIa A1, 600 mg QD, n = 19
[7] = all patients, phase IIa A2, 600 mg QD, n = 10
[8] = all patients, phase IIa B1, 600 mg QD, n = 53
[9] = all patients, phase IIa B2, 600 mg QD, n = 19
[10] = all patients, phase Ia cohorts 1–9, 100–800-mg BID, 300–400-mg QD, n = 41
[11] = all patients, phase Ib C1, 400 mg QD + PALBO, n = 4
[12] = all patients, phase Ib D1, 600 mg QD + LHRH-A, n = 6
[13] = overall, 3 study phases (152 patients)
[14] = patients (n = 77) with tumors harboring ESR1 mutations
[15] = patients with tumors harboring ESR1 mutations
[16] = tumors harboring ESR1 mutations, phase IIa A1, 600 mg QD, n = 19
[17] = tumors harboring ESR1 mutations, phase IIa A2, 600 mg QD, n = 9
[18] = tumors harboring ESR1 mutations, phase IIa B1, 600 mg QD, n = 20
[19] = tumors harboring ESR1 mutations, phase IIa B2, 600 mg QD, n = 4
[20] = tumors harboring ESR1 mutations, phase Ia cohorts 1–9, 100–800-mg BID, 300–400-mg QD, n = 23
[21] = tumors harboring ESR1 mutations, phase Ib D1, 600 mg QD + LHRH-A, n = 2

Compound: CC/C(=C(/c1ccc(/C=C/C(=O)O)cc1)c1ccc2[nH]ncc2c1)c1ccc(F)cc1Cl [GDC-0810]
- tumor regression [1]: induced tumor regression
- effects on CYP2C enzymes [2]: inhibitory effects
- CBR ([3]; 17 patients in phase Ia previously treated with fulvestrant): 35%
- median time to event (median PFS) ([3]; 54 patients in study phases Ib/IIa with tumors harboring ESR1 mutations): 3.5 months
- median time to event (median PFS) ([3]; 111 patients in study phases Ib/IIa): 3.5 months
- Missing or unevaluable [3, 6]: 1 (5%) n (%)
- Non-complete response/non-progressive disease [3, 6]: 5 (26%) n (%)
- Partial response [3, 6]: 0 n (%)
- Progressive disease [3, 6]: 9 (47%) n (%)
- Stable disease [3, 6]: 4 (21%) n (%)
- Missing or unevaluable [3, 7]: 2 (20%) n (%)
- Non-complete response/non-progressive disease [3, 7]: 0 n (%)
- Partial response [3, 7]: 0 n (%)
- Progressive disease [3, 7]: 4 (40%) n (%)
- Stable disease [3, 7]: 4 (40%) n (%)
- Missing or unevaluable [3, 8]: 3 (6%) n (%)
- Non-complete response/non-progressive disease [3, 8]: 8 (15%) n (%)
- Partial response [3, 8]: 4 (8%) n (%)
- Progressive disease [3, 8]: 21 (40%) n (%)
- Stable disease [3, 8]: 17 (32%) n (%)
- Missing or unevaluable [3, 9]: 0 n (%)
- Non-complete response/non-progressive disease [3, 9]: 4 (21%) n (%)
- Partial response [3, 9]: 0 n (%)
- Progressive disease [3, 9]: 11 (58%) n (%)
- Stable disease [3, 9]: 4 (21%) n (%)
- Non-complete response/non-progressive disease [3, 10]: 0 n (%)
- Partial response [3, 10]: 2 (5%) n (%)
- Progressive disease [3, 10]: 12 (29%) n (%)
- Stable disease [3, 10]: 26 (63%) n (%)
- Missing or unevaluable [3, 11]: 0 n (%)
- Non-complete response/non-progressive disease [3, 11]: 1 (25%) n (%)
- Partial response [3, 11]: 0 n (%)
- Progressive disease [3, 11]: 1 (25%) n (%)
- Stable disease [3, 11]: 2 (50%) n (%)
- Missing or unevaluable [3, 12]: 0 n (%)
- Non-complete response/non-progressive disease [3, 12]: 1 (17%) n (%)
- Partial response [3, 12]: 0 n (%)
- Progressive disease [3, 12]: 3 (50%) n (%)
- Stable disease [3, 12]: 2 (33%) n (%)
- Progressive disease ([3]; overall population): 40%
- Stable disease ([3]; overall population): 39%
- missing/unevaluable ([3]; overall population): 5%
- non-complete response/non-progressive disease ([3]; overall population): 13%
- partial responses ([3]; overall population): 4%
- Progressive disease [3, 13]: 61 (40%) n (%)
- Stable disease [3, 13]: 59 (39%) n (%)
- non-complete response/non-progressive disease [3, 13]: 19 (13%) n (%)
- partial responses [3, 13]: 6 (4%) n (%)
- CBR ([3]; overall, 3 study phases, n = 40): 26%
- Progressive disease [3, 14]: 29 (38%) n (%)
- Stable disease [3, 14]: 32 (42%) n (%)
- missing/unevaluable [3, 14]: 4 (5%) n (%)
- non-complete response/non-progressive disease [3, 14]: 9 (12%) n (%)
- partial responses [3, 14]: 3 (4%) n (%)
- Progressive disease [3, 15]: 38%
- Stable disease [3, 15]: 42%
- missing/unevaluable [3, 15]: 5%
- non-complete response/non-progressive disease [3, 15]: 12%
- partial responses [3, 15]: 4%
- CBR (responses or SD lasting ≥ 24 weeks) ([3]; phase Ia dose escalation, 16 patients): 39%
- Missing or unevaluable ([3]; phases Ib and IIa (n = 111)): 6 (5%) n (%)
- PD, best confirmed overall outcome ([3]; phases Ib and IIa (n = 111)): 49 (44%) n (%)
- non-complete response or non-progressive disease (non CR/PD) ([3]; phases Ib and IIa (n = 111)): 19 (17%) n (%)
- CBR ([3]; phases Ib combination treatments and IIa expansion cohorts (n = 111), n = 24): 22%
- CBR ([3]; tumors harboring ESR1 mutations, phase Ib/IIa (8 of 54 patients)): 15%
- Missing or unevaluable [3, 16]: 1 (5%) n (%)
- Non-complete response/non-progressive disease [3, 16]: 5 (26%) n (%)
- Partial response [3, 16]: 0 n (%)
- Progressive disease [3, 16]: 9 (47%) n (%)
- Stable disease [3, 16]: 4 (21%) n (%)
- Missing or unevaluable [3, 17]: 2 (22%) n (%)
- Non-complete response/non-progressive disease [3, 17]: 0 n (%)
- Partial response [3, 17]: 0 n (%)
- Progressive disease [3, 17]: 4 (44%) n (%)
- Stable disease [3, 17]: 3 (33%) n (%)
- Missing or unevaluable [3, 18]: 1 (5%) n (%)
- Non-complete response/non-progressive disease [3, 18]: 3 (15%) n (%)
- Partial response [3, 18]: 1 (5%) n (%)
- Progressive disease [3, 18]: 7 (35%) n (%)
- Stable disease [3, 18]: 8 (40%) n (%)
- Missing or unevaluable [3, 19]: 0 n (%)
- Non-complete response/non-progressive disease [3, 19]: 1 (25%) n (%)
- Partial response [3, 19]: 0 n (%)
- Progressive disease [3, 19]: 2 (50%) n (%)
- Stable disease [3, 19]: 1 (25%) n (%)
- Missing or unevaluable [3, 20]: 0 n (%)
- Non-complete response/non-progressive disease [3, 20]: 0 n (%)
- Partial response [3, 20]: 2 (9%) n (%)
- Progressive disease [3, 20]: 6 (26%) n (%)
- Stable disease [3, 20]: 15 (65%) n (%)
- Missing or unevaluable [3, 21]: 0 n (%)
- Non-complete response/non-progressive disease [3, 21]: 0 n (%)
- Partial response [3, 21]: 0 n (%)
- Progressive disease [3, 21]: 1 (50%) n (%)
- Stable disease [3, 21]: 1 (50%) n (%)
- proteasomal degradation of ERα [4]: induced proteasomal degradation of ERα
- response of ER to estrogens [4]: fully antagonized
- tumor regression [5]: induced tumor regression
